Non-standard residues stand in square brackets, D forms with d. Residues, ends and D or L forms follow the SMILES beside them.
Tests used:
α-chymotrypsin (CHT) = biological target: T1, α-chymotrypsin (CHT) (Bos taurus, UniProt P00766); experiment: Enzymatic degradation kinetics with α-chymotrypsin; format: in vitro ADME; details: CHT 0.36 mg/mL mixed, final DAL 0.50 mg/mL, 0.4 M PB, 37 ℃, 80 rpm, HPLC, mean ± SD of three independent experiments
T1 construct: purchased Merk (Merck/Sigma-Aldrich, St. Louis, MO, USA)
Protocol: (§1) Stock 1 mg/mL solutions of DAL-NP or free DAL in filtered 0.4 M PB were used for the enzymatic digestion tests. The solutions were mixed with 0.36 mg/mL CHT or 0.18 mg/mL PAC to obtain solutions with a final DAL concentration of 0.50 mg/mL. The DAL-NP and free DAL samples were subjected to digestion in the presence of CHT or PAC at 37 ℃ in a shaker water bath (80 rpm). At pre-established intervals, samples were withdrawn, appropriately diluted with the mobile phase (4 ℃), and analyzed in triplicate for DAL by HPLC, as described previously. The analysis was repeated in triplicate.

pancreatin (PAC) = experiment: Enzymatic degradation kinetics with pancreatin; format: in vitro ADME; details: PAC 0.18 mg/mL mixed, final DAL 0.50 mg/mL, 0.4 M PB, 37 ℃, HPLC
Protocol: as §1

[1] = Cytotoxicity by WST-1 assay, Caco-2; format: cell-based; details: human, WST-1, DAL 17–150 µg/mL, HBSS pH 6.8, three independent experiments, read-out: cell vitality, Caco-2, over the whole concentration range
Protocol: To study the cytotoxicity of the DAL/N^+-Ch-CD complex, we mixed 400 µL of polymer solution (3.175 mg/mL) and 380 µL of 1 mg/mL aqueous DAL, and the mix was lyophilized under the conditions described above. The DAL-NP were lyophilized and the lyophilized product was re-suspended in 250 µL of 0.22 µm filtered water. An aliquot of dispersion (200 µL) was withdrawn and added to 20 µL of Hank’s buffer solution 10× (HBSS 37 ℃, pH 6.8), and the mix was made to 2 mL with HBSS 1X as to have a DAL content of […]. The Caco-2 cells were subjected to DAL concentrations in the 17–150 µg/mL range, while the bEnd.3 cells were brought into contact with DAL concentrations in the 17–100 µg/mL range; more specifically, DAL was free in solution, contained in the DAL/N^+-rCh-CD (1:1) complex, or encapsulated in NP. The cytotoxicity of the compounds under study was evaluated by the WST-1 assay. Caco-2 and bEnd.3 cells were seeded in each well of 96-well plates at a seeding density of 2 × 10^4 cells per well, and left to proliferate for 24 h at 37 ℃ in 5% CO2. The culture medium was then removed and replaced with samples of DAL, DAL/N^+-Ch-CD complex, and DAL-NP, as previously described. Afterwards, formazan dye absorbance was quantified at 450 nm with the reference wavelength of 655 by using an Enspire 230 (Perkin-Elmer, Waltham, MA, USA) multilabel reader.

Caco-2 monolayer = experiment: Permeation across Caco-2 monolayer (Transwell); format: in vitro ADME; details: Caco-2 monolayer 24 days, A-B, apical DAL 150 µg/mL, up to 3 h, HPLC, NP as FITC-labeled DAL-NP
Protocol: The permeation studies were performed as described previously. Briefly, a Caco-2 monolayer was obtained by cell seeding (10^5 cells per well) on Transwell 12-well plates (pore size […], area 1.12 cm^2; Sigma-Aldrich, Saint Louis, MO, USA). Thereafter, 0.5 and 1.5 mL of culture medium were added to apical and basolateral compartments of the inserts, respectively; the culture medium was replaced every 2 days for 24 days. The transepithelial electrical resistance (TEER, Ω cm^2) measurement during the permeatstudies was carried out using a voltmeter with rod electrodes (Voltmeter Millicells-ERS, Millipore, Molsheim, France). The TEER values for the Caco-2 cell monolayer grown on the Transwell filter were ion taken at time 0, every hour for 3 h, and at 24 h.
Both the NP vehicle and the DAL were followed in the mucosal and basolateral phases. […] The withdrawn samples were kept in ice and analyzed by HPLC. The evaluation of DAL contained in NP-FITC by HPLC implied subtracting the contribution of the fluorescein-labeled polymer from the peptide peak area. Therefore, with each sample to be analyzed, a specific fluorescence intensity was recorded by a spectrofluorometer from which the fluorescent polymer concentration to be injected in the HPLC apparatus could be extrapolated. […]

bEnd.3 monolayer = experiment: Permeation across bEnd.3 monolayer (Transwell, BBB model); format: in vitro ADME, murine
Excerpt: The medium was changed every 2 days.

Protocol for bEnd.3 monolayers: The bEnd.3 cells, at a concentration of 5 × 10^4 cells per well, were seeded on 12-well Transwell plates with polyester filters with 0.4 µm membrane pores and incubated 10 days at 37 ℃ in a 5% CO2 atmosphere. One and a half milliliters of full medium was added to the basal chamber, while a volume of 0.5 mL, including the cells, was added to the apical chamber. The medium was changed every 2 days. After 6 days culture, the medium of the basolateral chamber was replaced by serum-free medium and the cells were cultured for 4 more days before the permeation experiment. To evaluate the confluence of the cell monolayer, and during the permeation studies, we measured the TEER at time 0 and at each hour for 3 h, and then at 24 h, as previously described. […] At 1 h intervals up to 3 h, the runs were interrupted and 500 µL was collected from the apical chamber and 1.5 mL from the basolateral chamber. Permeation of DAL and FITC-labeled vehicle into the basolateral chamber as well as DAL and FITC-labeled vehicle concentrations in the apical chamber were measured as described above.

Compound | reduction of substrate (DAL) after 5 min with CHT (α-chymotrypsin (CHT)) | reduction of initial DAL content 2 min after adding PAC (pancreatin (PAC); 80 rpm, 2 min, three independent experiments) | DAL present after 5 min with PAC (pancreatin (PAC); 5 min) | viability [1] | DAL presence in basolateral chamber, Caco-2 (Caco-2 monolayer) | TEER of bEnd.3 monolayer during permeation experiment (bEnd.3 monolayer; 100% corresponds to 180 Ω cm^2, initial apical DAL 25 µg/mL, 3 h) | DAL presence in basolateral chamber, bEnd.3 (bEnd.3 monolayer; bEnd.3 monolayer 10 days, Transwell, A-B, apical DAL 25 µg/mL, up to 3 h, HPLC, NP as FITC-labeled DAL-NP) | Papp, NaF 50 μg/mL (bEnd.3 monolayers) | Papp, NaF 100 μg/mL (bEnd.3 monolayers)
CC(C)C[C@H](NC(=O)[C@H](Cc1ccccc1)NC(=O)CNC(=O)[C@@H](C)NC(=O)[C@@H](N)Cc1ccc(O)cc1)C(=O)N[C@@H](CCCNC(=N)N)C(=O)O [DAL, (D-Ala2)-Leu Enkephalin-Arg] (H-Y[dA]GFLR-OH) | 90 ± 0.41% | 85 ± 1.39% | no peptide was present | > 70% | could never be evidenced | 100% | below the analytical limit | – | –
O=C1OC2(c3ccc(O)cc3Oc3cc(O)ccc32)c2ccccc21 [NaF, Sodium fluorescein] | – | – | – | – | – | – | – | 0.51 10-6 cm/sec | 0.52 10-6 cm/sec

Reference: publication PMC7822029, “Nanoparticles Based on Quaternary Ammonium Chitosan-methyl-β-cyclodextrin Conjugate for the Neuropeptide Dalargin Delivery to the Central Nervous System: An In Vitro Study” (Pharmaceutics, 2020)
